Ends that are not written are not given here.

The results in this text go back to US20090123940A1, “MOLECULES INVOLVED IN SYNAPTOGENESIS AND USES THEREFOR” (THE JOHNS HOPKINS UNIVERSITY, priority 2007, published 2009).

In assay [1] the test system is NPR cleavage at Site A (TACE). Nature of the assay: NPR cleavage assay in transfected HEK293T cells. Format: cell-based, rat. The note with it: TAPI-2 50 μM; GM6001 25 μM. Here is the method: Cleavage Assay HEK293T cells were plated in OptiMEM (Invitrogen, Carlsbad, Calif.) containing 5% FBS onto 6-well dishes at a density of 4×10^5 cells/mL (2 mL/well) 1 day before transfection. Cells were transfected with NPR in pRK5 using LipofectAMINE 2000 (Invitrogen, Carlsbad Calif.). After 24 hr the medium was replaced with serum-free OptiMEM. […] Samples from each well were obtained at specific time points, immediately placed on ice, centrifuged at 15,000 g to remove cell debris, and then treated with 2% β-mercaptoethanol containing loading buffer. At the end of the time course, the cells were lysed with RIPA buffer, centrifuged to remove cell debris, and treated with 2% β-mercaptoethanol in loading buffer. Samples (20 μL of medium or lysate diluted to 1/5) were run on SDS-PAGE gels and analyzed by Western blotting.

Assay [2] deals with Purkinje cells cultured from embryonic mouse cerebellum. Nature of the assay: LTD of glutamate-evoked inward current in cultured Purkinje cells (glutamate test pulses paired with depolarizing steps). In kind it is cell-based. The settings on record: t=40 min; TAPI-2 10 μM, GM6001 1 μM, GM6001 control compound 1 μM; n=7. Here is the method:
(§1) Recording and Ca^2+ imaging in cerebellar cultures. Cultures of embryonic mouse cerebellum were prepared as previously described and recordings were performed according to our previously published method (Leitges et al., Neuron 44:585-94, 2004). […]. Test pulses were delivered using negative current pulses (300-700 nA, 30-80 msec duration). LTD-inducing pairing stimuli consisted of six, 3-s-long depolarizations to 0 mV, each delivered together with a test pulse of glutamate.
(§2) Membrane currents were recorded with an Axopatch 200A amplifier, and digitized at 10 kHz for exogenous glutamate responses and 20 kHz for mEPSCs. Signals were lowpass filtered at 5 kHz (1 kHz for mEPSCs) and acquired using Axograph X software (Axograph Scientific, Sydney, Australia). Recordings in which Rinput or Rseries varied by more than 10% were excluded from the analysis. For analysis of mEPSCs, Axograph X mini analysis software was used. This detected events based on closeness of fit of the mEPSC to a sliding template. Events smaller than − ? 4 pA were discarded. A separate template was created for each recording by averaging 30 of its most unambiguous mEPSCs as selected by eye.
Other studies have shown that LTD in Purkinje cells cultured from embryonic mouse cerebellum requires activation of mGluR1, and is expressed postsynaptically as a reduction in surface AMPA receptors (Chung et al., Science 300:1751-5, 2003; Leitges et al., Neuron 44:585-94, 2004; Linden, PNAS 98:14066-71, 2001; Matsuda et al., EMBO J. 19:2765-74, 2000; Steinberg et al., Neuron 49:845-60, 2006; Wang and Linden, Neuron 25:635-47, 2000). Here, LTD was examined using a purely postsynaptic model in which iontophoretic test pulses of glutamate are applied to voltage-clamped Purkinje cells in culture. Following a baseline recording period, LTD was induced by pairing six 3 sec long depolarizing steps to 0 mV with six glutamate test pulses. When test pulses were resumed after pairing, LTD of the glutamate-evoked inward current was evident (52±9.0% of baseline at t=40 min, n=7 cells, FIG. 6A). […]

For assay [3], the system named is cultured cerebellar Purkinje cells. Kind of assay: Basal electrophysiological properties and Ca2+ imaging in cultured cerebellar Purkinje cells. Format: cell-based, mouse. The settings on record: TAPI-2 10 μM; GM6001 1 μM; GM6001 control 1 μM; mean ± SEM. How it is done: as §1, §2
Bis-Fura-2 ratio imaging of intracellular free Ca^2+ in the dendritic shafts of cultured Purkinje cells was accomplished by measuring the background corrected fluorescence ratio at 340 and 380 nm excitation using a cooled CCD camera system. In these experiments, EGTA was removed from the internal saline and replaced with 100 μM bis-Fura-2.

In assay [4] the target is T1, Narp (Rattus norvegicus, UniProt P97738).
T1 construct: GST-tagged GluR1-12mer (GST-G1-12mer) and myc-tagged full length Narp; made in house; host or cells: 293T cells (myc-Narp, cleared lysate); E. coli (GST fusions, pGEX-4T-2)
T1 sequence (P97738 15-432): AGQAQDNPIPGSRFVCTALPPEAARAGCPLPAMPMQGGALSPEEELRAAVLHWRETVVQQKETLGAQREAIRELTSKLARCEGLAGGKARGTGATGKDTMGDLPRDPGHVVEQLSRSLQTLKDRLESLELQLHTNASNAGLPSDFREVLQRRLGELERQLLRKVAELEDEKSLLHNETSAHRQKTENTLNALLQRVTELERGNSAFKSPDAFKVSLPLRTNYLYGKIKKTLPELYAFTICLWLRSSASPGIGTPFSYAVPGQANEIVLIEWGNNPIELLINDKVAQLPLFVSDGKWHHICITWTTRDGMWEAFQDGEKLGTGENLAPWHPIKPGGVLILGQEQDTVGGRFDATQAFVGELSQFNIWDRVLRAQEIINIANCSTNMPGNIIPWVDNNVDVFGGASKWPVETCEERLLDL
Kind of assay: In vitro binding (GST pull down) with myc-Narp. How it is done: In Vitro Binding. Polynucleotides encoding NAR fragments were subcloned into pGEX-4T-2 vector (Amersham) in the EcoRI and SalI sites. The constructs were confirmed by restriction enzyme digestion, DNA sequencing and fusion protein expression. GST-fusion proteins were purified by bacterial inoculation of one clone containing GST-fusion protein plasmid into 5 mL of LB liquid medium and cultured at 37 C overnight. Cultured bacteria was transferred into 400 mL of LB liquid medium and cultured at 30 C for 3 hours. Protein expression was induced with 5 mM IPTG and the bacteria were cultured at 30 C for another 2 hours. A bacterial pellet was collected and resuspended in 10 mL of lysis buffer (pH 7.4 PBS containing 10 mM sodium pyrophosphate, 1 mM sodium orthovanadate, 1% triton and 0.1% PMSF), sonicated for 10 seconds, 3 times at 4 C. Debris was pelleted with centrifugation at 12,000 rpm at 4 C for 10 minutes. The supernatant was incubated with Glutathione Sepharose 4B beads (Pharmacia) with agitation at 4 C for 2 hours. Beads were washed with lysis buffer+1% triton+0.1% PMSF twice; lysis buffer+PMSF twice; PBS+0.5M NaCl once; and PBS twice. The fusion protein bound beads were then used in the in vitro binding assay. Purified Narp protein preparation was accomplished by splitting 293T cells is into 100 mm culture dishes at the density of 5×10^5 cells/mL. […]

Assay [5] concerns GluR1. Nature of the assay: Immunocytochemical staining of surface and internalized GluR1 in cultured hippocampal neurons. The note with it: 50 μM DFB added 5 min before DHPG stimulation. Format: cell-based. How it is done: Immunocytochemical staining. Immunocytochemical staining of heterologous cells was performed as described (Xu et al., supra). For PMA-stimulation experiments, PMA (Sigma Cat #: P8139) at (150 nM) was added 90 minutes prior to live staining. Images were viewed and captured using Nikon E800 epifluorescence microscope fitted with a Princeton Instruments CCD camera. For live staining, neurons cultured on coverslips were incubated at 10° C. with the appropriate primary antibodies at the indicated dilutions in conditioned culture medium for 20 min. They were then washed with PBS and fixed with 4% paraformaldehyde/4% sucrose in PBS for 20 min at room temperature. Cells were permeablized with 0.2% Triton X-100 in PBS for 5 min and then blocked in 10% normal goat serum in PBS for 1 hr at room temperature. If intracellular proteins were of interest, coverslips were then incubated with antibody diluted in 10% normal goat serum for 1 hr at room temperature or overnight at 4° C. Coverslips were washed with PBS and incubated with secondary antibody conjugated to Alexa488 and Alexa555 (1:500 in 10% normal goat serum, Molecular Probes Eugene, Oreg.). Coverslips were mounted using the Prolong Antifade Kit (Molecular Probes, Eugene, Oreg.). For immunocytochemistry studies, mGluR1/5 were activated using the selective agonist (S)-DHPG (Tocris Cat.# 0805) with mGluR5 allosteric potentiator DFB (Tocris Cat.#1625). Neurons were incubated with DFB (50 μM) for 5 min and then DHPG (50 μM) for an additional 5 min in neuronal incubation medium and then transferred into the original incubation medium. […] Cells were incubated at 37° C. to allow endocytosis. At indicated time points, cells were incubated with N-terminal GluR1 mouse antibody (JH 4093; 0.2 μg/100 μl; kind gift from T. […] (to block endocytosis during staining). Cells were then processed for immunofluorescent staining as described above. An acid strip protocol was employed to measure endocytosed antibody labeled GluR1 (Snyder et al., 2001). Neurons were washed with progressively cooler NIM to slow basal endocytosis. Cells were then live labeled at 10° C. with GluR1 N-terminal antibody (0.2 μg/100 μL JH4094) antibody in NIM for 20 min. After washing unbound excess antibody, cells were incubated sequentially with DFB, DHPG, and original incubation medium at 37° C., as described above. After appropriate incubation times, cells were washed with 4° C. TBS. […] Neurons were then washed with 4° C. TBS followed by processing for immunofluorescent staining as described above. All neurons were viewed and captured using UltraVIEW spinning disk confocal microscope (PerkinElmer Life Sciences, Wellesley, Mass., USA) with a Nikon Eclipse TE 200 microscope and a 63× objective (Nikon, Melville, N.Y.). Images were acquired and saved as Tiff files with a dynamic range of 65536 grey levels (16-bit binary). Image analysis was performed using Metamorph imaging software (Universal Imaging, Downingtown, Pa.). For quantification of the punctate structures (e.g. GluR1), images were thresholded by grey value to differentiate single puncta. Segments of dendrites were selected and number of puncta was calculated per […] of length dendrite. Figures show ratios of calculated mean densities (number of puncta per unit length) from treated/control. Error bars were calculated using SEM and Gaussian error propagation. n=number of measured dendrites. Significance was determined by paired Student's T-test.

As for `CNC(=O)[C@H](Cc1c[nH]c2ccccc12)NC(=O)[C@@H](CC(=O)NO)CC(C)C` [GM6001], the “PMA-stimulated cleavage at Site A / secretion of LFC-NPR into the medium” value in assay [1] was “inhibited”. For the same compound, in assay [2], the “glutamate-evoked inward current after LTD induction” value is given as 106±8.4 % of baseline. Moreover, in assay [3], the “DHPG-evoked (dendritic Ca2+ transient)” value was 268 ± 39 nM, the “Depol-evoked (dendritic Ca2+ transient)” value is recorded as 557 ± 65 nM, the “Resting Ca2+” value stood at 123 ± 27 nM and the “mEPSC 10-90% rise” value is 2.0 ± 0.3 msec. In assay [3], the “mEPSC 50% decay” value was 8.0 ± 0.6 ms and the mEPSC amp is recorded as 25 ± 6 pA.
Take “G1-12mer peptide: synthetic 12 amino acid GluR1 NAR1 sequence, Narp binding motif LRRQRIDISRRG (SEQ ID NO:24) (listed as Homo sapiens)”: in assay [4] (synthetic peptide added), the “in vitro binding between GST-G1-NarI and Narp” value is “blocked”.
As to `CNC(=O)C(Cc1c[nH]c2ccccc12)NC(=O)C(CC(C)C)NC(=O)OC(C)(C)C` (stereo not drawn) [GM6001 control compound], the “glutamate-evoked inward current after LTD induction” value in assay [2] is given as 48±9.8 % of baseline. For the same compound, in assay [3], the “DHPG-evoked (dendritic Ca2+ transient)” value was found to be 277 ± 42 nM, the “Depol-evoked (dendritic Ca2+ transient)” value was found to be 526 ± 55 nM, the “Resting Ca2+” value turned out to be 100 ± 25 nM and the “mEPSC 10-90% rise” value worked out at 1.6 ± 0.3 msec. Moreover, in assay [3], the “mEPSC 50% decay” value stood at 7.6 ± 0.7 ms and the mEPSC amp was 26 ± 6 pA.
As for `Fc1cccc(C=NN=Cc2cccc(F)c2)c1` [DFB, 3,3′-difluorobenzaldazine], the “consistency of the DHPG-evoked response” value in assay [5] is on record as “increased the consistency of the DHPG-evoked response”.
As to “GST-G1-12mer: bacteria GST-tagged GluR1-12mer (LRRQRIDISRRG; also: GST tag, end not given here)”, in assay [4] (GST fusion proteins), the “pull down of myc-tagged full length Narp” value is listed as “pulls down Narp”.
